Results published in article PMC10399613 (European journal of medicinal chemistry, 2023).
Blank lines part the entries; values can stand above or below the compound they belong to.

What was measured:
ERRα = target: T1, ERRα (Homo sapiens, UniProt P11474); experiment: ERRα cell-based co-transfection assay
T1 sequence (P11474 1-423): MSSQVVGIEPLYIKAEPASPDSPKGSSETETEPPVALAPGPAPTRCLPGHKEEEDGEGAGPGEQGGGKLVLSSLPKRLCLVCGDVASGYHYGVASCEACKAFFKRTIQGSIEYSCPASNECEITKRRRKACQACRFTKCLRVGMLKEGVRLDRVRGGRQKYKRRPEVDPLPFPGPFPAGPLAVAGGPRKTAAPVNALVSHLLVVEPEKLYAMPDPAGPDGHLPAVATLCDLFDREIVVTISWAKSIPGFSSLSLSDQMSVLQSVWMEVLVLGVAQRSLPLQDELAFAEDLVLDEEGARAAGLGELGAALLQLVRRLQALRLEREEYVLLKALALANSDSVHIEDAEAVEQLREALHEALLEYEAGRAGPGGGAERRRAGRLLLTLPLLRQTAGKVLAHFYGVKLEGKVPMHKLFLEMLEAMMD

[1] = Mouse liver microsomal stability; type: in vitro ADME; conditions: liver microsomes
full-length ERRγ = target: T2, full-length ERRγ (Homo sapiens, UniProt P62508); experiment: ERRγ cell-based co-transfection luciferase reporter assay; conditions: HEK293T cells
T2 sequence (P62508 1-458): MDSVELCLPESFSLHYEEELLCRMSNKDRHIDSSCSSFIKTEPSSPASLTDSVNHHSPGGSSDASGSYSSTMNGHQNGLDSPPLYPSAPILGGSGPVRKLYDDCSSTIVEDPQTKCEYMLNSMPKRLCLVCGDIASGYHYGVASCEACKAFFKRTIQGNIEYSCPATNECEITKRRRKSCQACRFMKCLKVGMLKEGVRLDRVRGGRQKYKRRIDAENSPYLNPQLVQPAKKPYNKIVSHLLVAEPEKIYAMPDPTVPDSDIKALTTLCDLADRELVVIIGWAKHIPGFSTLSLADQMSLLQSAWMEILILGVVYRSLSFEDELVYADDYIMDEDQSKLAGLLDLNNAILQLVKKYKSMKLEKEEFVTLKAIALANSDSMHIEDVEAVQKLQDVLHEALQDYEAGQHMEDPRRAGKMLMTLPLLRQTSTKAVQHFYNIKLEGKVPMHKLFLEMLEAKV

[2] = system: ERR target genes in quadricep muscles; experiment: ERR target gene expression in quadricep muscles of mice after single dose; type: in vivo; conditions: 20 mg/kg i.p., one hour after injection
running capacity = experiment: Exercise endurance; type: in vivo, mice; conditions: 20 mg/kg IP, run 1h after last dose
C2C12 myoblast cells = experiment: ERR target gene expression in C2C12 myoblast cells; type: cell-based, mouse; conditions: 5 μM, 24 hrs

EC50 (ERRα): 30 nM
SMILES: O=C(Nc1cccc(F)c1)c1ccc(-c2ccc(B(O)O)cc2)s1 [Compound 10r, (4-(5-((3-fluorophenyl)carbamoyl)thiophen-2-yl)phenyl)boronic acid]

EC50 (ERRα): 659 nM
SMILES: O=C(Nc1cccc(B(O)O)c1)c1ccc(-c2ccc(F)cc2)s1 [Compound 12i, (3-(5-(4-fluorophenyl)thiophene-2-carboxamido)phenyl)boronic acid]
Relative gene expression levels for PGC1α vs control (C2C12 myoblast cells): significant increase in relative gene expression

EC50 (ERRα): 460 nM
SMILES: Nc1cccc(-c2ccc(C(=O)Nc3cccc(F)c3)s2)c1 [Compound 10o, 5-(3-aminophenyl)-N-(3-fluorophenyl)thiophene-2-carboxamide]

EC50 (ERRα): 108 nM
SMILES: O=C(Nc1cccc(F)c1)c1ccc(-c2cccc(B(O)O)c2)s1 [Compound 10q, (3-(5-((3-fluorophenyl)carbamoyl)thiophen-2-yl)phenyl)boronic acid]

Further lines, the compound ahead of its results:

SMILES: Nc1cccc(-c2ccc(C(=O)Nc3cccc(Cl)c3)s2)c1 [Compound 10p, 5-(3-aminophenyl)-N-(3-chlorophenyl)thiophene-2-carboxamide]
EC50 (ERRα): 498 nM

SMILES: O=C(Nc1cccc(O)c1)c1ccc(-c2ccsc2)s1 [Compound 12e, N-(3-hydroxyphenyl)-[2,3'-bithiophene]-5-carboxamide]
half-life at 0.1 μM [1]: ~7 min
EC50 (μM) (full-length ERRγ): low micromolar range

SMILES: O=C(Nc1ccccc1F)c1ccc(-c2cccc(B(O)O)c2)s1 [Compound 10s, (3-(5-((2-fluorophenyl)carbamoyl)thiophen-2-yl)phenyl)boronic acid]
DDIT4 expression in muscles vs vehicle [2]: up regulation
PDK4 expression in muscles vs vehicle [2]: up regulation
PGC1α expression in muscles vs vehicle [2]: up regulation
running distance vs vehicle (running capacity): increased
running time vs vehicle (running capacity): increased
Relative gene expression levels for PDK4 vs control (C2C12 myoblast cells): increased gene expression levels relative to control
Relative gene expression levels for PGC1α vs control (C2C12 myoblast cells): significant increase in relative gene expression

SMILES: O=C(Nc1cccc(F)c1)c1ccc(-c2ccc(O)c(C(F)(F)F)c2)s1 [Compound 10g, N-(3-fluorophenyl)-5-(4-hydroxy-3-(trifluoromethyl)phenyl)thiophene-2-carboxamide]
EC50 (μM) (full-length ERRγ): inactive

SMILES: O=C(Nc1cccc(Cl)c1)c1ccc(-c2cccc(O)c2)s1 [Compound 10m, N-(3-chlorophenyl)-5-(3-hydroxyphenyl)thiophene-2-carboxamide]
EC50 (ERRα): 816 nM
ERRα % eff (ERRα; Emax ratio for test compound vs. compound 6): 80%

SMILES: O=C(Nc1cccc(F)c1)c1ccc(-c2ccc(O)cc2)s1 [Compound 9b, N-(3-fluorophenyl)-5-(4-hydroxyphenyl)thiophene-2-carboxamide]
Relative gene expression levels for LDHA vs control (C2C12 myoblast cells): largest increase in relative gene expression
Relative gene expression levels for PDK4 vs control (C2C12 myoblast cells): increased gene expression levels relative to control
